Drawing on US10870647B2, “Imidazopyridine derivative, method for preparing same, and pharmaceutical composition containing same as active ingredient for preventing or treating cancer” (DAEGU-GYEONGBUK MEDICAL INNOVATION FOUNDATION, priority 2016, dated 2020), this text covers remaining binding for 3 molecules.

Holding throughout (assay): Kinase selectivity, scanMAX Kinase assay panel (DiscoverX), % control at 1 uM
What all share (assay type): binding

In test [1] the target is T1, scanMAX Kinase assay panel (Homo sapiens, UniProt O94804).
T1 construct: purchased DiscoverX
T1 sequence (O94804 whole entry): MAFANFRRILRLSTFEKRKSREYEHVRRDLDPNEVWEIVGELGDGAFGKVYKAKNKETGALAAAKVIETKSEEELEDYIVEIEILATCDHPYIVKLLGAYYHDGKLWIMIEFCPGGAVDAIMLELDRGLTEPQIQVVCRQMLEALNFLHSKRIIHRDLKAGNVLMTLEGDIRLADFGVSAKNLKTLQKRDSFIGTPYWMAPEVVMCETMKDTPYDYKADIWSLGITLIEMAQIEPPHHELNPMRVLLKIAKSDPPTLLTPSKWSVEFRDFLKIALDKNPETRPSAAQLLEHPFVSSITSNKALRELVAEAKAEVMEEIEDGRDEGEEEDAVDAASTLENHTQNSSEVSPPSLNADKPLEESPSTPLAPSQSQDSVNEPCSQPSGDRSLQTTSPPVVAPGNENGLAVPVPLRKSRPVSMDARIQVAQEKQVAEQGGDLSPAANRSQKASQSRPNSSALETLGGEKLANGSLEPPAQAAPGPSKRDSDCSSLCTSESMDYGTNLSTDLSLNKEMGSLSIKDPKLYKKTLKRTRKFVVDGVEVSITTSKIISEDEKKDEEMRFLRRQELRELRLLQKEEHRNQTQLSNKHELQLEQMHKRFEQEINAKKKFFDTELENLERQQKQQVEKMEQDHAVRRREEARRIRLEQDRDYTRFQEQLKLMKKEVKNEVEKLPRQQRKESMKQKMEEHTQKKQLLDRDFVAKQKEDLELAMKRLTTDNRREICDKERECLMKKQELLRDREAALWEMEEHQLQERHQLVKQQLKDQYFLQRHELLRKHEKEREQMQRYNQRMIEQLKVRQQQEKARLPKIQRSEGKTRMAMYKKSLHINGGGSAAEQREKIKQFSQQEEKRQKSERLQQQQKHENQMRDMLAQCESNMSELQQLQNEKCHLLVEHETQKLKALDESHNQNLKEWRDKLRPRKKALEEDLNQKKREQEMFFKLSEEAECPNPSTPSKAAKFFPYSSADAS
As to conditions: LOK; 1 uM; read-out: Percent Control (%). The method, boiled down:
(§1)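 Single-point screen at 1 uM compound in DMSO. Lower % control means stronger inhibition, with the cutoff for activity set at <35%.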

In test [2] the target is T2, scanMAX Kinase assay panel (Homo sapiens, UniProt O95835).
T2 construct: purchased DiscoverX
T2 sequence (O95835 1-1130): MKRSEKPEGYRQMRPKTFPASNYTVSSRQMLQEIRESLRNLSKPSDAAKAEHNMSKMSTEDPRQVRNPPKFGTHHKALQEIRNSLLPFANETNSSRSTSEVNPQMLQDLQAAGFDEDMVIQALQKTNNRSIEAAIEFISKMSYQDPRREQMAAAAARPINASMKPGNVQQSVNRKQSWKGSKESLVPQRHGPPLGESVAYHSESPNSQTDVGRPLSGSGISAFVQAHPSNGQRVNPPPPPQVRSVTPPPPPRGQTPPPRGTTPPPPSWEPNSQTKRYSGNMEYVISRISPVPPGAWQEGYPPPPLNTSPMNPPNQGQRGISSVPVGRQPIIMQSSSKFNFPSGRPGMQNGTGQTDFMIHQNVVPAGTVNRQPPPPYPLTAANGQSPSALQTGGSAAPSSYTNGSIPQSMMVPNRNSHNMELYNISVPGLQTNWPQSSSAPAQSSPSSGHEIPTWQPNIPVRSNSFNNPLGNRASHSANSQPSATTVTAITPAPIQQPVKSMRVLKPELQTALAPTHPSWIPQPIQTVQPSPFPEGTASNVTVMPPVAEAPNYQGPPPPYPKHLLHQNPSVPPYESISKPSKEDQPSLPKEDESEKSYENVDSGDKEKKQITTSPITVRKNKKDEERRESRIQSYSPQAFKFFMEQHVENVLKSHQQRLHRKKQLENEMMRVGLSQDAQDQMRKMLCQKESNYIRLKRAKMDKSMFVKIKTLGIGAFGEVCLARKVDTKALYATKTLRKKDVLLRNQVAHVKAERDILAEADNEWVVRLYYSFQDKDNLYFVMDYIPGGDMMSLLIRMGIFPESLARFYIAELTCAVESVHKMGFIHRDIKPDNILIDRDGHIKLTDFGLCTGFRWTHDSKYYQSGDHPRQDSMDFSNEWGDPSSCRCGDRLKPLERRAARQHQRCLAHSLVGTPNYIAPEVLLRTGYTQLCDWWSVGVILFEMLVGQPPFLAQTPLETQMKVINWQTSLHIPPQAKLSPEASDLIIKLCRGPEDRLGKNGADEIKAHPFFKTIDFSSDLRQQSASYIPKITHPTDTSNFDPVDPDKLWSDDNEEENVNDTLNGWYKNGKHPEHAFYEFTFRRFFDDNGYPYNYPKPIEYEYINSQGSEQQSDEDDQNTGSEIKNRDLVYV
As to conditions: LATS1; 1 uM; read-out: Percent Control (%). The method, boiled down: as §1

Test [3] concerns the target T3, scanMAX Kinase assay panel (Homo sapiens, UniProt Q9Y4K4).
T3 construct: purchased DiscoverX
As to conditions: MAP4K5; 1 uM; read-out: Percent Control (%). The procedure, abridged:
as §1

The target of test [4] is T4, scanMAX Kinase assay panel (Homo sapiens, UniProt P10721, T670I/V559D).
T4 construct: purchased DiscoverX
T4 sequence (P10721 26-976 V559D/T670I): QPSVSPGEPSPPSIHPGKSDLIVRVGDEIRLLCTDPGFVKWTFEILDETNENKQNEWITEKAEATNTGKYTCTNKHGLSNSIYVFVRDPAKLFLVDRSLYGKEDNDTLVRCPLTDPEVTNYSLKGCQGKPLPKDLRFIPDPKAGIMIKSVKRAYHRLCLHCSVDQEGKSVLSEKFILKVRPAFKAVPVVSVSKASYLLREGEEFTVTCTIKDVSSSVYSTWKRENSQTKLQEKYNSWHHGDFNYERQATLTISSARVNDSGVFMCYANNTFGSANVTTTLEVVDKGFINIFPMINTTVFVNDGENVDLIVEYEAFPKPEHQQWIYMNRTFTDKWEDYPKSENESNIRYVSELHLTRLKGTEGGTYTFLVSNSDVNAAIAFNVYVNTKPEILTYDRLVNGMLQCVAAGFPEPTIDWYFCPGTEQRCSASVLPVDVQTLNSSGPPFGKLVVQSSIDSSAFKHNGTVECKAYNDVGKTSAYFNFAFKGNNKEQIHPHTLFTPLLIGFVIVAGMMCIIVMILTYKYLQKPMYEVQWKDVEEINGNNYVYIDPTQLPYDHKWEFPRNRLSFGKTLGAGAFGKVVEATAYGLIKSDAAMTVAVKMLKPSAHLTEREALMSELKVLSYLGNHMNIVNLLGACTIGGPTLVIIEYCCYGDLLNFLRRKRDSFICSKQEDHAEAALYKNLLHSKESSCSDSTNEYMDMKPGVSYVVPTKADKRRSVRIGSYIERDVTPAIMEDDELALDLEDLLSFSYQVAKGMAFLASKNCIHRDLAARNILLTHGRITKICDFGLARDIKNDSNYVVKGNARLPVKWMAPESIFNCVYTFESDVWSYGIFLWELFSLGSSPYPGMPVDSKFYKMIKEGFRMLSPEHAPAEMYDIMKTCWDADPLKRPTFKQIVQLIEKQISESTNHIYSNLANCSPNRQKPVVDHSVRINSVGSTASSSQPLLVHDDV
As to conditions: KIT (V559D, T670I); 1 uM; read-out: Percent Control (%). The method, boiled down:
as §1

Test [5] addresses T5, scanMAX Kinase assay panel (Homo sapiens, UniProt P48736).
T5 construct: purchased DiscoverX
To be noted: PIK3CG; 1 uM; read-out: Percent Control (%). The procedure, abridged:
as §1

For test [6], the target named is T6, scanMAX Kinase assay panel (Homo sapiens, UniProt Q9H093).
T6 construct: purchased DiscoverX
T6 sequence (Q9H093 1-628): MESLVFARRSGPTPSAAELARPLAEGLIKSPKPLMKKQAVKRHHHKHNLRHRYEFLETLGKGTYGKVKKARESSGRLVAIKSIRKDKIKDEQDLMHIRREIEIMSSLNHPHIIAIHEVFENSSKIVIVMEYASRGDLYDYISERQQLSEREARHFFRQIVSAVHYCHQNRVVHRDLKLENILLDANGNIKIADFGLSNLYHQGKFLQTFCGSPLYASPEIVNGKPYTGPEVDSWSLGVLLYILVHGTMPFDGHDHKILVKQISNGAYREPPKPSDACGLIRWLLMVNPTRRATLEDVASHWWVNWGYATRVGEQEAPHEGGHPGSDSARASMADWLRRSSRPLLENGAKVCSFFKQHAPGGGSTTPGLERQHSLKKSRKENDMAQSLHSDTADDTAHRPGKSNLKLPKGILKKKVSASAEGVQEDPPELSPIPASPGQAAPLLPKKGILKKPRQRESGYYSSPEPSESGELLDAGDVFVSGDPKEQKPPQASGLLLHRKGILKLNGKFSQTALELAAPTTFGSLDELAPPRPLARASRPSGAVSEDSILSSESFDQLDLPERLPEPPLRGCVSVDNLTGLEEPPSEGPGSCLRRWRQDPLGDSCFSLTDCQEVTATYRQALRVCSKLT
To be noted: SNARK; 1 uM; read-out: Percent Control (%). The method, boiled down: as §1

T5 sequence (P48736 whole entry): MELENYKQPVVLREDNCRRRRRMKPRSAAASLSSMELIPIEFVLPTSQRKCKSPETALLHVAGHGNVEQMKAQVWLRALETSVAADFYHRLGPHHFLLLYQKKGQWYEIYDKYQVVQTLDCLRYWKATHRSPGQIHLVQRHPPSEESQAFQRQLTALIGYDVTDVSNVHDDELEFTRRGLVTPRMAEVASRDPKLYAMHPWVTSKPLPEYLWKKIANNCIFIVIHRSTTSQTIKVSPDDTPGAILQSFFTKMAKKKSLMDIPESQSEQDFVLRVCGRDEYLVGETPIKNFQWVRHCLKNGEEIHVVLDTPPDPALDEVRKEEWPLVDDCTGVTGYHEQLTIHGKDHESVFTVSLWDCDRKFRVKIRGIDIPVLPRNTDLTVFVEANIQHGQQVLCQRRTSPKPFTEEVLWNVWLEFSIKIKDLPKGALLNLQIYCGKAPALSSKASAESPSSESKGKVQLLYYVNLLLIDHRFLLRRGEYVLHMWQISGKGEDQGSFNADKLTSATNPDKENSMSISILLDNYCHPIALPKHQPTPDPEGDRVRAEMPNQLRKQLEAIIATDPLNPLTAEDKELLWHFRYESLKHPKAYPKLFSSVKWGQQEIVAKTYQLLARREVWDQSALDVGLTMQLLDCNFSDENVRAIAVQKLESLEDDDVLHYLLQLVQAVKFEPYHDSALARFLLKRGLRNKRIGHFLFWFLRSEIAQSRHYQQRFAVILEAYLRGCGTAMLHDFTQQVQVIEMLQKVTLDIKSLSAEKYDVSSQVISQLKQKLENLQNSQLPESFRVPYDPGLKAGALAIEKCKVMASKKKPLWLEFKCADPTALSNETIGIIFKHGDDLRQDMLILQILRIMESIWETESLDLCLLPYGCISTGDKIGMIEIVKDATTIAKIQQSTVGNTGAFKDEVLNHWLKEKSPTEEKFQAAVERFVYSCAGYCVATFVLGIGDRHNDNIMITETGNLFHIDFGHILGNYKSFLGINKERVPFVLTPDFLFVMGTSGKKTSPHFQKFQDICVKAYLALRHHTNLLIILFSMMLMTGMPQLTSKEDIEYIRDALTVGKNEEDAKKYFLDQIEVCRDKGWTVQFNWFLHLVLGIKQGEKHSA
T3 sequence (Q9Y4K4 whole entry): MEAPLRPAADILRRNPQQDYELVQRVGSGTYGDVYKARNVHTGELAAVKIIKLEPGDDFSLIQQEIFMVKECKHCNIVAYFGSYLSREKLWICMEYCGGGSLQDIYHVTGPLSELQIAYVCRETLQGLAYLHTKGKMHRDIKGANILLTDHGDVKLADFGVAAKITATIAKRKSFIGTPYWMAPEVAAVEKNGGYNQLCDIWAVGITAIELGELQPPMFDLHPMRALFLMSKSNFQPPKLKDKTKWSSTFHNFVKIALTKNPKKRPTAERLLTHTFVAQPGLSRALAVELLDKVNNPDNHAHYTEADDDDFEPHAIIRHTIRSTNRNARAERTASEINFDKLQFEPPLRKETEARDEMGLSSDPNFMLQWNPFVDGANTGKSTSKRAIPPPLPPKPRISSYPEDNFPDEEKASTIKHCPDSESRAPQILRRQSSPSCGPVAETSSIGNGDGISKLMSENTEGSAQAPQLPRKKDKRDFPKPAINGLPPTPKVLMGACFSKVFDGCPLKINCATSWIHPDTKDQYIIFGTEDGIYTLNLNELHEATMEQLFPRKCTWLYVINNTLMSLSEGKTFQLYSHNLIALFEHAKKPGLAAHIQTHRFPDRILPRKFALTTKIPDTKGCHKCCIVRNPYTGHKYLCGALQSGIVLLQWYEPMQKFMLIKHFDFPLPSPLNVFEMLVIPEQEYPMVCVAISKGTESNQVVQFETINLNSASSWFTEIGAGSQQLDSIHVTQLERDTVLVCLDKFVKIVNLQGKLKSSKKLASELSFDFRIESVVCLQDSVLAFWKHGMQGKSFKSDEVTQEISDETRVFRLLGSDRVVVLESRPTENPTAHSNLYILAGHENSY

Take `Cc1ccc(C(=O)Nc2ccc(CN3CCN(C)CC3)c(C(F)(F)F)c2)cc1C#Cc1cnc2c(Nc3cnn(C)c3)cccn12` [Example 1, 4-methyl-3-((8-((1-methyl-1H-pyrazol-4-yl)amino)imidazo[1,2-a]pyridin-3-yl)ethynyl)-N-(4-((4-methylpiperazin-1-yl)methyl)-3-(trifluoromethyl)phenyl)benzamide]: the remaining binding at 1 µM in test [1] stood at 0%; in test [2], 40%; in test [3], 1%; in test [4], 0%; in test [5] it was 100%; in test [6], 73%.

With `Cc1ccc(NC(=O)C2(C(=O)Nc3ccc(F)cc3)CC2)cc1C#Cc1cnc2c(Nc3cnn(C(C)C)c3)cccn12` [Example 78], the remaining binding at 1 µM in test [1] was 0%; in test [2], 82%; in test [3] it was 82%; in test [4], 63%; in test [5] it was 100%; in test [6] it was 68%.

As to `Cc1cn(-c2cc(NC(=O)c3ccc(C)c(C#Cc4cnc5c(Nc6cnn(C)c6)cccn45)c3)cc(C(F)(F)F)c2)cn1` [Example 12, 4-methyl-N-(3-(4-methyl-1H-imidazol-1-yl)-5-(trifluoromethyl)phenyl)-3-((8-((1-methyl-1H-pyrazol-4-yl)amino)imidazo[1,2-a]pyridin-3-yl)ethynyl)benzamide], the remaining binding at 1 µM in test [1] was 0%; in test [2], 96%; in test [3], 12%; in test [4] it was 3%; in test [5] it was 100%; in test [6] it was 100%.
